Assay results as given in patent US20230119806A1, “ANTIGEN SPECIFIC EPITOPE BASED ANTI-INFECTIVE VACCINES” (VAXIL BIOTHERAPEUTICS LTD., priority 2020, published 2023).

Legend:
[1] = system: Peripheral blood mononuclear cells (PBMCs) from healthy donors; test: Ex vivo immunogenicity: proliferation of PBMCs stimulated by SP-loaded autologous dendritic cells; format: cell-based; conditions: healthy donor PBMCs; for proliferation in CD4+ and CD8+ T cells / proliferation versus positive control SPs: SP-loaded autologous DCs
Method: Immunogenicity is assessed by quantifying proliferation of T cells in response to exposure to peptides. To this end, healthy donor peripheral blood mononuclear cells (PBMCs) are marked by a fluorescent dye and exposed to either the naked peptide or to autologous antigen presenting cells (APCs) pre-loaded with the SP. Phytohaemagglutinin (PHA), or tetanus toxoid, (TT), or previously tested SPs, serve as a positive control for maximum stimulation. Unloaded APCs, or medium, or human Fab fragments serve as negative controls. Proliferation is calculated by the increase of CD3+ T cells and the fraction of cells with different number of cell divisions assessed by flow cytometry.
Peripheral blood mononuclear cells (PBMCs) from healthy donors were stimulated by SP-loaded autologous dendritic cells (DCs).

[2] = system: splenocytes of immunized BALB/c mice; test: ELISpot of interferon gamma after SP stimulation of splenocytes; format: cell-based
Method: (§1) BALB/c and C57BL/6 mice were immunized by subcutaneous (SC) injections with 100 μg of individual SPs or a SP mixture and with intraperitoneal injections of 100 ng of mouse granulocyte macrophage colony stimulating factor (mGM-CSF) three times at 7-day intervals.

BALB/c and C57BL/6 mice = test: ELISA of sera of mice immunized with signal peptides (antibody response); format: in vivo; conditions: for antibody response against VXL-301 (ELISA): VXL-301 coated plate; for antibody responses of immunized mice (ELISA, overall): summary of BALB/c and C57BL/6 ELISA results; for antibody response against VXL-303 (ELISA): VXL-303 coated plate
Method: as §1
To monitor if antibody response was developed against the SPs an enzyme-linked immunosorbent assay (ELISA) was performed with sera obtained on days 10 and 20 post the last immunization when VXL-301, or VXL-302, or VXL-303 or VXL-201c (negative control) were coated on the ELISA plate.

[3] = system: splenocytes of immunized C57BL/6 mice; test: ELISpot of interleukin 2 after SP stimulation of splenocytes; format: cell-based; conditions: SP stimulation of splenocytes of immunized C57BL/6 mice
Method: as §1

[4] = BALB/c mice, sera day 10 post last immunization, 100 μg SC + mGM-CSF, three times
[5] = C57BL/6 mice, sera day 20 post last immunization

MFVFLVLLPLVSSQC [VXL-301]
proliferation versus unloaded DCs (non-specific proliferation) [1]: proliferation that was greater than unloaded DCs | proliferation in CD4+ and CD8+ T cells [1]: evident in both CD4+ cytotoxic T cells and CD8+ helper T cells | proliferation versus positive control SPs [1]: comparable to the levels observed for positive control SPs | secretion of interferon gamma (ELISpot) [2]: induced secretion of interferon gamma primarily in the VXL-301- and the SP mixture-immunized groups | antibody response against VXL-301 (ELISA) (BALB/c and C57BL/6 mice; [4]): greatest antibody response | antibody response against VXL-301 (ELISA) (BALB/c and C57BL/6 mice; [5]): highest antibody responses | antibody responses of immunized mice (ELISA, overall) (BALB/c and C57BL/6 mice): demonstrated antibody responses | secretion of interleukin 2 (ELISpot) [3]: induced secretion of interleukin 2 primarily in the VXL-301- and the SP mixture-immunized groups

MKFLVFLGIITTVAA [VXL-303]
proliferation versus unloaded DCs (non-specific proliferation) [1]: proliferation that was greater than unloaded DCs | proliferation in CD4+ and CD8+ T cells [1]: evident in both CD4+ cytotoxic T cells and CD8+ helper T cells | proliferation versus positive control SPs [1]: comparable to the levels observed for positive control SPs | secretion of interferon gamma (ELISpot) [2]: induced secretion of interferon gamma primarily in the VXL-303- and the SP mixture-immunized groups | antibody response against VXL-303 (ELISA) (BALB/c and C57BL/6 mice; [4]): greatest antibody response | antibody response against VXL-303 (ELISA) (BALB/c and C57BL/6 mice; [5]): highest antibody responses | antibody responses of immunized mice (ELISA, overall) (BALB/c and C57BL/6 mice): demonstrated antibody responses | secretion of interleukin 2 (ELISpot) [3]: induced secretion of interleukin 2 primarily in the VXL-303- and the SP mixture-immunized groups

MKIILFLALITLATC [VXL-302, signal peptide of SARS-CoV-2 ORF7a]
proliferation versus unloaded DCs (non-specific proliferation) [1]: proliferation that was greater than unloaded DCs | proliferation in CD4+ and CD8+ T cells [1]: evident in both CD4+ cytotoxic T cells and CD8+ helper T cells | proliferation versus positive control SPs [1]: comparable to the levels observed for positive control SPs | secretion of interferon gamma (ELISpot) [2]: induced secretion of interferon gamma primarily in the VXL-302 immunized group | secretion of interleukin 2 (ELISpot) [3]: induced secretion of interleukin 2 primarily in the VXL-302-immunized group
